Our source for the IC50 and T/C values is ChEMBL document CHEMBL1129161, “Studies on the active metabolite (DU-86) of KW-2189, a novel derivative of duocarmycin” (Bioorg Med Chem Lett, 1996).

Assay [1] relates to HeLa. Kind of assay: Concentration required to inhibit the growth of HeLa S3 cells after 1 hour. The format is functional, cell-based. The settings on record: Homo sapiens.
Assay [2] relates to HeLa. The assay can be described thus: Concentration required to inhibit the growth of HeLa S3 cells after 72 hours. The settings on record: Homo sapiens. The format is functional, cell-based.
The test system of assay [3] is Sarcoma-180. Kind of assay: Antitumor activity expressed as T/C at an intravenous dose of 1.0 mg/kg in mice implanted subcutaneously with murine sarcoma 180 cells. The format is functional, Mus musculus.
For assay [4], the system named is Sarcoma-180. Kind of assay: Antitumor activity expressed as T/C at an intravenous dose of 8.0 mg/kg in mice implanted subcutaneously with murine sarcoma 180 cells. In kind it is functional, Mus musculus.
Assay [5] deals with Sarcoma-180. Kind of assay: Antitumor activity expressed as T/C at an intravenous dose of 0.13 mg/kg in mice implanted subcutaneously with murine sarcoma 180 cells. In kind it is functional, Mus musculus.

For orientation: IC50 means the concentration needed to halve the response being measured. Higher therefore signals a need for much substance. In the case of `COC(=O)c1c(C)[nH]c2c1[C@@]13C[C@@H]1Cn1c(O)c4nc5c(OC)c(OC)c(OC)cc5c-4c(c13)C2=O`, the figures for the half-inhibitory concentration (IC50) with HeLa [1] and in the assay on HeLa [2] were 36 nM and 6.6 nM, respectively.
For `COC(=O)c1c2c(n(C)c1C)C(=O)C=C1N(C(=O)c3cc4cc(OC)c(OC)c(OC)c4[nH]3)C[C@H]3C[C@]123`, the IC50 in the assay on HeLa [1] came out at 1.4 nM; in the assay on HeLa [2], 0.069 nM. Moreover, the T/C in the assay with Sarcoma-180 [3] is reported as 0.22.
Take `COC(=O)c1c2c(n(C)c1C)C(=O)C=C1N(C(=O)c3cc4cc(OC)c(OC)c(OC)c4n3C)C[C@H]3C[C@]123`: the IC50 was 890 nM with HeLa [1] and 230 nM in the assay with HeLa [2]. In the assay on Sarcoma-180 [4], this molecule displayed a T/C of 0.96.
In the case of `COC(=O)c1c(C)[nH]c2c1[C@@]13C[C@@H]1CN(C(=O)c1cc4cc(OC)c(OC)c(OC)c4[nH]1)C3=CC2=O`, the T/C in the assay on Sarcoma-180 [5] is listed as 0.18.
